The values that follow come from ChEMBL document CHEMBL1135713, “Antitumor benzothiazoles. 16. Synthesis and pharmaceutical properties of antitumor 2-(4-aminophenyl)benzothiazole amino acid prodrugs” (J Med Chem, 2002).

Data set [1] in a line: Delta logP. The data set is classed as ADME. The following applies: octanol/water.
Data set [2] is described as follows: log P value in cyclohexane:buffer at pH 7.4. The data set is classed as physicochemical.
Data set [3] can be described thus: The compound was tested for its solubility at a pH of 10.5. The data set is classed as ADME. The following applies: pH 10.5; read-out: S.
A short description of data set [4]: The compound was tested for its solubility at a pH of 7.4. Format: ADME. As to conditions: pH 7.4; read-out: S.
The nature of data set [5]: The compound was tested for its solubility at a pH of 5.0. Format: ADME. As to conditions: pH 5; read-out: S.
The nature of data set [6]: The compound was tested for its solubility at a pH of 8.5. Format: ADME. The following applies: pH 8.5; read-out: S.
A short description of data set [7]: The compound was tested for its solubility at a pH of 9.6. As to conditions: pH 9.6; read-out: S. The data set is classed as ADME.
A short description of data set [8]: The compound was tested for its solubility at a pH of 6.3. The data set is classed as ADME. The following applies: pH 6.3; read-out: S.

As to `Cc1cc(-c2nc3ccccc3s2)ccc1N`, the “delta logP” value in data set [1] was found to be 1.45. In addition, the logD in data set [2] is 2.51.
For the molecule `Cc1cc(-c2nc3cc(F)ccc3s2)ccc1NC(=O)[C@@H](N)CCCCN.Cl.Cl`, the solubility in data set [3] is 10 µg/mL; in data set [4], 390 µg/mL; in data set [5] it was over 53200 µg/mL; in data set [6] it was 75 µg/mL; in data set [7] it was 20 µg/mL; in data set [8] it was 7000 µg/mL.
